Patent publication US5652238A, “Esters of substituted-hydroxyacetyl piperazine phenyl oxazolidinones” (Pharmacia & Upjohn Company, priority 1996, dated 1997)
≈ marks a conversion by molar mass, not a printed value.

Assays:
[1] = Aqueous solubility (pH 7, phosphate buffer); assay type: physicochemical
[2] = test system: Staphylococcus aureus UC9213 or Streptococcus species; assay: Antimicrobial activity in vivo, Murine Assay (mice infected intraperitoneally with bacteria; ED50 from survival over six days); settings: 144 h, female mice, treatment one hour and five hours after infection
Experimental: Antimicrobial activity was tested in vivo using the Murine Assay procedure. Groups of female mice (six mice of 18-20 grams each) were injected intraperitoneally with bacteria which were thawed just prior to use and suspended in brain heart infusion with 4% brewers yeast UC9213 (Staphylococcus aureus) or brain heart infusion (Streptococcus species). Antibiotic treatment at six dose levels per drug was administered one hour and five hours after infection by either oral intubation or subcutaneous ("subcut.") routes. Survival was observed daily for six days. ED50 values based on mortality ratios were calculated using probit analysis. The subject compounds were compared against a well-known antimicobial (Vancomycin) as a control.

Row | solubility [1] | Structure (SMILES) | ED50 ([2]; oral) | ED50 ([2]; sc, subcut.)
1 | 13 mg/mL (≈ 25.5 mM) | CC(=O)NC[C@H]1CN(c2ccc(N3CCN(C(=O)COC(=O)C(C)(CO)CO)CC3)c(F)c2)C(=O)O1 [Example 22, 2,2-bis(hydroxymethyl)propionic acid, 2-[4-[4-[5-[(acetylamino)methyl]-2-oxo-3-oxazolidinyl]-2-fluorophenyl]-1-piperazinyl]-2-oxoethyl ester, (S)-] | > 18 mg/kg | 4 mg/kg
2 | 9.8 mg/mL (≈ 17.2 mM) | CC(=O)NC[C@H]1CN(c2ccc(N3CCN(C(=O)COC(=O)c4ccc(NC(=O)CN)cc4)CC3)c(F)c2)C(=O)O1 [Example 29, 4-N-(glycinyl)aminobenzoic acid, 2-[4-[4-[5-[(acetylamino)methyl]-2-oxo-3-oxazolidinyl]-2-fluorophenyl]-1-piperazinyl]-2-oxoethyl ester, (S)-] | 9 mg/kg | 
3 | 34.6 mg/mL (≈ 68.2 mM) | CC(=O)NC[C@H]1CN(c2ccc(N3CCN(C(=O)COC(=O)CCCN(C)C)CC3)c(F)c2)C(=O)O1 [Example 12, 4-(Dimethylamino)butanoic acid, 2-[4-[4-[5-[(acetylamino)methyl]-2-oxo-3-oxazolidinyl]-2-fluorophenyl]-1-piperazinyl]-2-oxoethyl ester, (S)-] | 12 mg/kg | > 20 mg/kg
4 | 0.01 mg/mL (≈ 0.0185 mM) | CC(=O)NC[C@H]1CN(c2ccc(N3CCN(C(=O)COC(=O)c4ccc(N(C)C)cc4)CC3)c(F)c2)C(=O)O1 [Example 7, 4-dimethylaminobenzoic acid, 2-[4-[4-[5-[(acetylamino)methyl]-2-oxo-3-oxazolidinyl]-2-fluorophenyl]-1-piperazinyl]-2-oxoethyl ester, (S)-] | > 20 mg/kg | 1 mg/kg
